According to patent US20060154243A1 (priority 2003, published 2006):

What was measured:
[1] = tested on: rabbit serum obtained by immunizing with SARS-CoV strain Frankfurt 1; type: binding
[2] = tested on: control serum Blood-bank (commercial negative donor pooled serum); type: binding, human
[3] = tested on: control serum LUMC (pooled serum of ten healthy hospital workers); type: binding, human

Row | Sequence | Rabbit serum linear peptides [1] | Rabbit serum looped peptides [1] | Control Serum Blood-Bank Looped peptides [2] | Control serum Blood-bank linear peptides [2] | Control serum LUMC linear peptides [3] | Control serum LUMC looped peptides [3]
1 | AMGQGQNSADPKVYP | 0.1 | 0.6 | – | – | – | –
2 | IDFYLCFLAFLLFLV | 0.4 | 0.5 | 0.6 | 0.9 | 0.5 | 0.7
3 | IILRLGSQLSLSMAR | 0.6 | 0.5 | – | – | – | –
4 | ASNKPHVLEDPCKVQ | 0.8 | 0.9 | – | – | – | –
5 | SADPKVYPIILRLGS | 0.1 | 0.4 | – | – | – | –
6 | LVLIMLIIFWFSLEI | 0.4 | 0.6 | 0.7 | 0.9 | 0.8 | 0.3
7 | LTLIDFYLCFLAFLL | 0.3 | 0.5 | 0.5 | 0.9 | 0.8 | 0.7
8 | LEARAFQSTPIVVQM | 0.1 | 0.5 | – | – | – | –
9 | AFQSTPIVVQMTKLA | 0.1 | 0.5 | – | – | – | –
10 | SQLSLSMARRNLDSL | 0.1 | 0.4 | – | – | – | –
11 | AFLLFLVLIMLIIFW | 0.5 | 1.0 | 0.8 | 0.8 | 0.4 | 0.4
12 | DPKVYPIILRLGSQL | 0.1 | 0.4 | – | – | – | –
13 | FQSTPIVVQMTKLAT | 0.1 | 0.6 | – | – | – | –
14 | RLGSQLSLSMARRNL | 0.1 | 2.5 | – | – | – | –
15 | YLCFLAFLLFLVLIM | 0.3 | 0.3 | 0.6 | 0.8 | 0.4 | 0.8
16 | HLVDPQIQLTITRME | 0.1 | 0.3 | – | – | – | –
17 | LAFLLFLVLIMLIIF | 0.4 | 1.1 | 0.8 | 0.6 | 0.3 | 0.4
18 | LHLVDPQIQLTITRM | 0.5 | 0.6 | – | – | – | –
19 | SNKPHVLEDPCKVQH | 0.8 | 0.4 | – | – | – | –
20 | SLCSCICTVVQRCAS | 0.1 | 0.2 | – | – | – | –
21 | QNSADPKVYPIILRL | 0.1 | 0.1 | – | – | – | –
22 | PQIQLTITRMEDAMG | 0.0 | 0.2 | – | – | – | –

Row | Sequence | Rabbit serum linear peptides [1] | Rabbit serum looped peptides [1] | Control Serum Blood-Bank Looped peptides [2] | Control serum Blood-bank linear peptides [2] | Control serum LUMC linear peptides [3] | Control serum LUMC looped peptides [3]
23 | IQLTITRMEDAMGQG | 0.0 | 0.2 | – | – | – | –
24 | PIILRLGSQLSLSMA | 0.1 | 0.5 | – | – | – | –
25 | FYLCFLAFLLFLVLI | 0.3 | 0.6 | 0.7 | 0.8 | 0.4 | 0.6
26 | ELTLIDFYLCFLAFL | 0.4 | 0.6 | 0.6 | 0.7 | 0.5 | 0.7
27 | LIDFYLCFLAFLLFL | 0.3 | 0.3 | 0.5 | 0.7 | 0.4 | 0.7
28 | LLIVLTCISLCSCIC | 0.1 | 0.5 | – | – | – | –
29 | QIQLTITRMEDAMGQ | 0.1 | 0.2 | – | – | – | –
30 | SLSMARRNLDSLEAR | 0.1 | 0.4 | – | – | – | –
31 | CISLCSCICTVVQRC | 0.0 | 0.5 | – | – | – | –
32 | GSQLSLSMARRNLDS | 0.1 | 0.7 | – | – | – | –
33 | ILRLGSQLSLSMARR | 0.1 | 0.7 | – | – | – | –
34 | NELTLIDFYLCFLAF | 0.4 | 0.8 | 0.5 | 0.6 | 0.6 | 0.9
35 | PIVVQMTKLATTEEL | 0.1 | 0.6 | – | – | – | –
36 | NLDSLEARAFQSTPI | 0.2 | 0.4 | – | – | – | –
37 | DSLEARAFQSTPIVV | 0.1 | 0.5 | – | – | – | –
38 | MKLLIVLTCISLCSC | 0.1 | 0.5 | – | – | – | –
39 | ISLCSCICTVVQRCA | 0.1 | 0.5 | – | – | – | –
40 | QLTITRMEDAMGQGQ | 0.1 | 0.4 | – | – | – | –
41 | MARRNLDSLEARAFQ | 0.1 | 0.5 | – | – | – | –
42 | VDPQIQLTITRMEDA | 0.0 | 0.4 | – | – | – | –
43 | VYPIILRLGSQLSLS | 0.6 | 1.0 | – | – | – | –
44 | LTCISLCSCICTVVQ | 0.1 | 0.2 | – | – | – | –

Row | Sequence | Rabbit serum linear peptides [1] | Rabbit serum looped peptides [1] | Control Serum Blood-Bank Looped peptides [2] | Control serum Blood-bank linear peptides [2] | Control serum LUMC linear peptides [3] | Control serum LUMC looped peptides [3]
45 | LIVLTCISLCSCICT | 0.1 | 0.5 | – | – | – | –
46 | RAFQSTPIVVQMTKL | 0.1 | 0.7 | – | – | – | –
47 | KVYPIILRLGSQLSL | 1.8 | 0.5 | – | – | – | –
48 | EDAMGQGQNSADPKV | 0.6 | 0.5 | – | – | – | –
49 | ADPKVYPIILRLGSQ | 0.4 | 0.3 | – | – | – | –
50 | ARAFQSTPIVVQMTK | 0.2 | 0.7 | – | – | – | –
51 | RRNLDSLEARAFQST | 0.3 | 0.5 | – | – | – | –
52 | LCSCICTVVQRCASN | 0.1 | 1.1 | – | – | – | –
53 | IVVQMTKLATTEELP | 0.2 | 0.4 | – | – | – | –
54 | GQGQNSADPKVYPII | 0.4 | 0.5 | – | – | – | –
55 | MGQGQNSADPKVYPI | 0.1 | 0.6 | – | – | – | –
56 | ARRNLDSLEARAFQS | 0.1 | 0.5 | – | – | – | –
57 | EARAFQSTPIVVQMT | 0.1 | 0.4 | – | – | – | –
58 | GQNSADPKVYPIILR | 0.1 | 0.6 | – | – | – | –
59 | QLSLSMARRNLDSLE | 0.1 | 0.3 | – | – | – | –
60 | LRLGSQLSLSMARRN | 0.1 | 0.5 | – | – | – | –
61 | STPIVVQMTKLATTE | 0.1 | 0.5 | – | – | – | –
62 | PKVYPIILRLGSQLS | 0.1 | 0.4 | – | – | – | –
63 | CASNKPHVLEDPCKV | 0.5 | 0.8 | – | – | – | –
64 | ALHLVDPQIQLTITR | 0.5 | 0.5 | – | – | – | –
65 | DPQIQLTITRMEDAM | 0.1 | 0.3 | – | – | – | –
66 | LDSLEARAFQSTPIV | 0.1 | 0.5 | – | – | – | –

Row | Sequence | Rabbit serum linear peptides [1] | Rabbit serum looped peptides [1] | Control Serum Blood-Bank Looped peptides [2] | Control serum Blood-bank linear peptides [2] | Control serum LUMC linear peptides [3] | Control serum LUMC looped peptides [3]
67 | LSLSMARRNLDSLEA | 0.1 | 0.3 | – | – | – | –
68 | SMARRNLDSLEARAF | 0.1 | 0.4 | – | – | – | –
69 | QGQNSADPKVYPIIL | 0.1 | 0.5 | – | – | – | –
70 | IVLTCISLCSCICTV | 0.1 | 0.6 | – | – | – | –
71 | LSMARRNLDSLEARA | 0.0 | 0.4 | – | – | – | –
72 | LGSQLSLSMARRNLD | 0.1 | 0.3 | – | – | – | –
73 | RNLDSLEARAFQSTP | 0.3 | 0.5 | – | – | – | –
74 | YPIILRLGSQLSLSM | 0.2 | 0.4 | – | – | – | –
75 | DAMGQGQNSADPKVY | 0.3 | 0.4 | – | – | – | –
76 | KLLIVLTCISLCSCI | 0.0 | 0.5 | – | – | – | –
77 | TTEELPDEFVVVTAK | 0.0 | 0.5 | – | – | – | –
78 | QSTPIVVQMTKLATT | 0.0 | 0.6 | – | – | – | –
79 | SLEARAFQSTPIVVQ | 0.1 | 0.6 | – | – | – | –
80 | NSADPKVYPIILRLG | 0.1 | 0.4 | – | – | – | –
81 | TPIVVQMTKLATTEE | 0.1 | 0.4 | – | – | – | –
82 | MDPNQTNVVPPALHL | 1.1 | 0.1 | – | – | – | –
83 | VLTCISLCSCICTVV | 0.0 | 0.4 | – | – | – | –
84 | TCISLCSCICTVVQR | 0.0 | 0.5 | – | – | – | –
85 | LVDPQIQLTITRMED | 0.1 | 0.2 | – | – | – | –
